Test results published in US20030118627A1 (DABUR RESEARCH FOUNDATION, priority 2001, published 2003).

Assays:
Assay type in all cases: cell-based
INT 407 = assay: MTT cytotoxicity assay, INT 407 intestine; details: Homo sapiens, 24 h, read-out: ED50 values of cytotoxicity
Experimental: (§1) Briefly, a […] MTT cytotoxicity assay was performed, which is based on the principle of uptake of MTT (3-(4,5-dimethylthiazol-2-yl)-2,5-diphenyl tetrazolium bromide), a tetrazolium salt, by the metabolically active cells where it is metabolized by active mitochondria into a blue colored formazan product that is read spectrophoto-metrically. MTT was dissolved in phosphate buffered saline with a pH of 7.4 to obtain an MTT concentration of 5 mg/ml; the resulting mixture was filtered through a 0.22 micron filter to sterilize and remove a small amount of insoluble residue. For each type of tumor cell, 20,000 to 50,000 cells were seeded in a 96-well culture plate and incubated with the combination in a CO2 incubator for 24 hours. […] The assay was terminated after 24 hours by adding 100 ug (20 ul) of MTT to each well, then incubating for additional one hour, and finally adding 50 ul of 10% SDS-0.01N HCl to each well to lyse the cells and dissolve formazan. After incubating for one hour, the plate was read spectrophotometrically at 540 nm and the percentage cytotoxicity calculated.

L132 = assay: MTT cytotoxicity assay, L132 lung; details: Homo sapiens
Experimental: as §1

KB = assay: MTT cytotoxicity assay, KB oral; details: Homo sapiens, 24 h, read-out: ED50 values of cytotoxicity
Experimental: as §1

Miapaca2 = assay: MTT cytotoxicity assay, Miapaca2 pancreas; details: Homo sapiens
Experimental: as §1

Hep2 = assay: MTT cytotoxicity assay, Hep2 larynx; details: Homo sapiens, HEp-2, 24 h, read-out: ED50 values of cytotoxicity
Experimental: as §1

PTC = assay: MTT cytotoxicity assay, PTC colon; details: Homo sapiens
Experimental: as §1

U87MG = assay: MTT cytotoxicity assay, U87MG glioblastoma; details: Homo sapiens, U-87 MG, 24 h, read-out: ED50 values of cytotoxicity
Experimental: as §1

DU145 = assay: MTT cytotoxicity assay, DU145 prostate; details: Homo sapiens
Experimental: as §1

293 = assay: MTT cytotoxicity assay, 293 kidney; details: Homo sapiens, HEK293, 24 h, read-out: ED50 values of cytotoxicity
Experimental: as §1

MOLT 4 = assay: MTT cytotoxicity assay, MOLT 4 leukemia; details: Homo sapiens
Experimental: as §1

PA 1 = assay: MTT cytotoxicity assay, PA 1 ovary; details: Homo sapiens
Experimental: as §1

MCF7 = assay: MTT cytotoxicity assay, MCF7 breast; details: Homo sapiens
Experimental: as §1

[1] = 1.0 mM, read-out: Percent cytotoxicity
[2] = 2.5 mM, read-out: Percent cytotoxicity
[3] = 4 mM, read-out: Percent cytotoxicity
[4] = 5 mM, read-out: Percent cytotoxicity
[5] = 10 mM, read-out: Percent cytotoxicity
[6] = 24 h, read-out: ED50 values of cytotoxicity

Structure (SMILES): CCCCOC(=O)C1CCC(=O)N1C(OC(C)=O)C(C)=O (centres unmarked) [MGC-5, N-(1-acetoxy-2-ketopropyl)-butylpyroglutamate]
- IC50 (INT 407): 2600 ± 1100 µM
- cytotoxicity at 1000 µM (L132; [1]): 2.9 ± 0.1%
- cytotoxicity at 2500 µM (L132; [2]): 36.9 ± 4.9%
- cytotoxicity at 4000 µM (L132; [3]): 57.8 ± 4%
- cytotoxicity at 5000 µM (L132; [4]): 59 ± 6%
- cytotoxicity at 10000 µM (L132; [5]): 76.3 ± 5.4%
- IC50 (L132; [6]): 3600 ± 1100 µM
- IC50 (KB): 2000 ± 700 µM
- cytotoxicity at 1000 µM (Miapaca2; MIA PaCa-2, 1.0 mM, read-out: Percent cytotoxicity): 0%
- cytotoxicity at 2500 µM (Miapaca2; MIA PaCa-2, 2.5 mM, read-out: Percent cytotoxicity): 24.8 ± 2.6%
- cytotoxicity at 4000 µM (Miapaca2; MIA PaCa-2, 4 mM, read-out: Percent cytotoxicity): 43.8 ± 3.9%
- cytotoxicity at 5000 µM (Miapaca2; MIA PaCa-2, 5 mM, read-out: Percent cytotoxicity): 54.9 ± 4.2%
- cytotoxicity at 10000 µM (Miapaca2; MIA PaCa-2, 10 mM, read-out: Percent cytotoxicity): 67.9 ± 4%
- IC50 (Miapaca2; MIA PaCa-2, 24 h, read-out: ED50 values of cytotoxicity): 4300 ± 1600 µM
- IC50 (Hep2): 1900 µM
- cytotoxicity at 1000 µM (PTC; [1]): 2.9 ± 0.3%
- cytotoxicity at 2500 µM (PTC; [2]): 37.9 ± 3.9%
- cytotoxicity at 4000 µM (PTC; [3]): 53.9 ± 5.4%
- cytotoxicity at 5000 µM (PTC; [4]): 85.9 ± 8.9%
- cytotoxicity at 10000 µM (PTC; [5]): 89.2 ± 7.4%
- IC50 (PTC; [6]): 3800 ± 900 µM
- IC50 (U87MG): 3400 ± 1100 µM
- cytotoxicity at 1000 µM (DU145; DU-145, 1.0 mM, read-out: Percent cytotoxicity): 27.9 ± 0.4%
- cytotoxicity at 2500 µM (DU145; DU-145, 2.5 mM, read-out: Percent cytotoxicity): 58.4 ± 5.9%
- cytotoxicity at 4000 µM (DU145; DU-145, 4 mM, read-out: Percent cytotoxicity): 59 ± 4.3%
- cytotoxicity at 5000 µM (DU145; DU-145, 5 mM, read-out: Percent cytotoxicity): 68.3 ± 4.6%
- cytotoxicity at 10000 µM (DU145; DU-145, 10 mM, read-out: Percent cytotoxicity): 80 ± 7%
- IC50 (DU145; DU-145, 24 h, read-out: ED50 values of cytotoxicity): 1900 ± 700 µM
- IC50 293: 1900 ± 700 µM
- IC50 (MOLT 4; 24 h, Molt 4 Leukemia, read-out: ED50 values of cytotoxicity): 1500 ± 100 µM
- cytotoxicity at 1000 µM (MOLT 4; MOLT 4 Leukemia, 1.0 mM, read-out: Percent cytotoxicity): 25.9 ± 2.9%
- cytotoxicity at 2500 µM (MOLT 4; MOLT 4 Leukemia, 2.5 mM, read-out: Percent cytotoxicity): 61 ± 4.8%
- cytotoxicity at 4000 µM (MOLT 4; MOLT 4 Leukemia, 4 mM, read-out: Percent cytotoxicity): 76 ± 7.1%
- cytotoxicity at 5000 µM (MOLT 4; MOLT 4 Leukemia, 5 mM, read-out: Percent cytotoxicity): 82.9 ± 6.9%
- cytotoxicity at 10000 µM (MOLT 4; MOLT 4 Leukemia, 10 mM, read-out: Percent cytotoxicity): 87.9 ± 6.9%
- IC50 (PA 1; 24 h, PA 1 Ovarian, read-out: ED50 values of cytotoxicity): 1600 ± 100 µM
- cytotoxicity at 1000 µM (PA 1; PA 1 Ovary, 1.0 mM, read-out: Percent cytotoxicity): 31.8 ± 3.1%
- cytotoxicity at 2500 µM (PA 1; PA 1 Ovary, 2.5 mM, read-out: Percent cytotoxicity): 58.8 ± 5.3%
- cytotoxicity at 4000 µM (PA 1; PA 1 Ovary, 4 mM, read-out: Percent cytotoxicity): 83.9 ± 7.8%
- cytotoxicity at 5000 µM (PA 1; PA 1 Ovary, 5 mM, read-out: Percent cytotoxicity): 85.9 ± 6.2%
- cytotoxicity at 10000 µM (PA 1; PA 1 Ovary, 10 mM, read-out: Percent cytotoxicity): 86.9 ± 8.4%
- IC50 (MCF7; MCF7, 24 h, MCF 7 Breast, read-out: ED50 values of cytotoxicity): 5000 ± 2100 µM
- cytotoxicity at 1000 µM (MCF7; MCF7 breast, 1.0 mM, read-out: Percent cytotoxicity): 0%
- cytotoxicity at 2500 µM (MCF7; MCF7 breast, 2.5 mM, read-out: Percent cytotoxicity): 0%
- cytotoxicity at 4000 µM (MCF7; MCF7 breast, 4 mM, read-out: Percent cytotoxicity): 34.9 ± 3.9%
- cytotoxicity at 5000 µM (MCF7; MCF7 breast, 5 mM, read-out: Percent cytotoxicity): 51.9 ± 3.8%
- cytotoxicity at 10000 µM (MCF7; MCF7 breast, 10 mM, read-out: Percent cytotoxicity): 58.7 ± 5%
